Assay results from US20070270418A1, “Inhibitors of P38 and Methods of Using the Same” (priority 2003, published 2007).
Where two headings read alike, the source gives them in different places.

Tests used:
[1] = target: T1, p38α (Homo sapiens, UniProt Q16539); test: p38 MAP Kinase assay, ATF2 phosphorylation (ELISA); format: biochemical; conditions: 40 μM ATP
T1 construct: p38 MAP Kinases are recombinant human full-length proteins with an amino-terminal GST fusion; GST (N); purchased Upstate (Charlottesville, Va.); host or cells: E. coli
Excerpt: Compounds of the invention are screened for the ability to inhibit ATF2 phosphorylation by p38 MAP Kinase in vitro. The ability of compounds to inhibit ATF2 phosphorylation in this in vitro assay is correlated with the inhibition of p38 MAP Kinase and TNFα expression in vivo, and is therefore an indicator of potential in vivo therapeutic activity (Raingeaud, J., et al, J. Biol. Chem., 270: 7420-7426, 1995, Brinkman, M. N., et al, J. Bil. Chem. 274: 30882-30886, 1999 and Fuchs, S. Y. et al, J. Biol. Chem. 275: 12560-12564, 2000).
All kinases and the substrate ATF2 are acquired from Upstate (Charlottesville, Va.). p38 MAP Kinases are recombinant human full-length proteins with an amino-terminal GST fusion, expressed in and purified from E. coli. ATF2 is a GST fusion protein containing amino acids 19-96 of human ATF2 expressed in E. coli. All proteins were aliquoted and stored at −80° C.
p38 MAP Kinase assays are performed using an assay buffer containing 25 mM HEPES, pH 7.5, 10 mM MgCl2, 2 mM DTT, 20 mM β-glycerophosphate, 0.1 mM Na3VO4, 40 μM ATP and 1.25 μM of ATF2, together with 6 ng of p38α protein, 12 ng p38β protein, 1.5 ng p38γ, or 0.4 ng JNK2α2. Compounds are serially diluted in DMSO and 2 μL of test compound at 25× final concentration is used. The vehicle control receives DMSO only. Test compounds are pre-incubated with 20 μl of enzyme in kinase buffer (25 mM HEPES, pH 7.5, 10 mM MgCl2, 2 mM DTT, 20 mM 3-glycerophosphate and 0.1 mM Na3VO4) at room temperature for 15 minutes. […] The reactions are incubated for 30 minutes at 37° C. and terminated by the addition of 18 μl of 200 mM EDTA. An ELISA method is used to measure the phosphorylation of ATF2 at Thr 69. High binding 96-well plates (Corning 3369) are coated with 50 μl of kinase reaction for 1 hour at 37° C. The coated plates are washed with 200 μl washing buffer (25 mM Tris HCl, pH 8.3, 192 mM glycine, 0.1% SDS and 0.05% Tween-20) three times. The plates are then washed three times with SuperBlock in TBS (Pierce, 37535). After blocking, plates are incubated with 50 μl of rabbit anti-phospho-ATF2 antibody (Cell Signaling, 9221 L, 1:500) for 30 minutes at 37° C. Plates are washed three times with washing buffer prior to incubation with 50 μl HRP-conjugated goat anti-rabbit antibody (Cell Signaling, 7074, 1:500) for 30 minutes at 37° C. Plates are then washed three times with washing buffer before incubation with 50 μl of Ultra TMB-ELISA (Pierce, 34028) for 8 minutes at room temperature. Finally, 50 μl of phosphoric acid (1 M) is added to stop reactions and plate absorbance is read at 450 nm on a SpectraMax 250 plate reader.

[2] = tested on: TNFα release from THP-1 cells; test: TNFα release from LPS-stimulated THP-1 cells; format: cell-based
Excerpt: Compounds of the invention are screened for the ability to inhibit TNFα and IL-1β release from THP-1 cells stimulated with lipopolysaccharide (LPS) in vitro. The ability of compounds to inhibit TNFα and IL-1β release in this in vitro assay is correlated with the inhibition of p38 activity and TNFα and IL-1β expression in vivo, and is therefore an indicator of potential in vivo therapeutic activity (Lee J. C. et al, Ann. N.Y. Acad. Sci. 696: 149-170, 1993 and Nature, 372: 739-746, 1994).
THP-1 cells from ATCC (TIB202) are maintained at 37° C., 5% CO2 in RPMI 1640 media (MediaTech, Herndon, Va.) containing 4.5 g/L glucose, supplemented with 10% fetal bovine serum, 1% penicillin/streptomycin and 50 μM β-mercaptoethanol.
Test compounds are initially dissolved in RPMI media with 1% DMSO (v/v). Compounds are then serially diluted in RPMI media for all subsequent dilutions. The assay is performed under sterile conditions. THP-1 cells at a culture density of 6-8×10^5 cells/ml are collected and resuspended in the RPMI media at 10^6 cells/ml. 100 μl of resuspended cells are added to each well, which contain 100 μl of a test compound. Test compounds are prepared at twice the final concentration. Final DMSO concentration is no more than 0.5% (v/v). Cells are preincubated with compound for 30 minutes at 37° C., 5% CO2 prior to stimulation with lipopolysaccharide (LPS) (Sigma L-2880, 4 mg/ml stock in PBS). The final LPS concentration in each well is 10 or 30 μg/ml for TNFα and IL-1β release, respectively. Unstimulated control cell suspensions receive PBS vehicle only. Cell mixtures are incubated for 18 or 48 hours for TNFα and IL-1β release, respectively. 150 μl of supernatants are taken and transferred to a fresh plate and stored at −20° C. until further analysis.

[3] = Homo sapiens, THP-1, 18 h, LPS 10 μg/ml, 18 hours, read-out: TNFα (THP-1) IC50
[4] = LPS 10 μg/ml, 18 hours, read-out: TNFα (THP-1) IC50

T1 sequence (Q16539 whole entry, the tested form may be a part): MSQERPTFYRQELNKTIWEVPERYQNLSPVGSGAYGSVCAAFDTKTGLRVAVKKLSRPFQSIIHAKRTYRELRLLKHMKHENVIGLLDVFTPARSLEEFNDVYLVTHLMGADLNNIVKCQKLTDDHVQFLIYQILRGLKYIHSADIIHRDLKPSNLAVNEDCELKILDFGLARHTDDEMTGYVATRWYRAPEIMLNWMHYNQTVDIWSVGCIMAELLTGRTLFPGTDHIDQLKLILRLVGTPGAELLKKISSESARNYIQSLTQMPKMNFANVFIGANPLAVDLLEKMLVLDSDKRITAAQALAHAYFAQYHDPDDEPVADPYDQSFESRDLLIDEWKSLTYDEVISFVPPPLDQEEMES

| SMILES | IC50 [1] [nM] | IC50 [2, 3] [nM] | IC50 ([2]; Homo sapiens, THP-1, 18 h, read-out: TNFα (THP-1) IC50 (nM)) [nM] | IC50 [2, 4] [nM] |
| --- | --- | --- | --- | --- |
| CCC[C@@H](CO)Nc1nccc(-c2c(-c3ccc(F)cc3)nc3occn23)n1 [CVIII] | 3.11 | 11.7 | – | – |
| CCOc1nccc(-c2c(-c3ccc(F)cc3)nc3sccn23)n1 [CLI] | 122 | 284 | – | – |
| OCC(O)CNc1nccc(-c2c(-c3ccc(F)cc3)nc3occn23)n1 (stereo not shown) [XXXIII] | 143 | 57 | – | – |
| CC(C)[C@@H](CO)Nc1nccc(-c2c(-c3ccc(F)cc3)nc3sccn23)n1 [CCXXXI] | 1.13 | 5.67 | – | – |
| CC(C)[C@H](CO)Nc1nccc(-c2c(-c3ccc(F)cc3)nc3sccn23)n1 [CCXXXII] | 2.06 | 11.1 | – | – |
| CCOCCCNc1nccc(-c2c(-c3ccc(F)cc3)nc3occn23)n1 [XLIII] | 1.56 | 13.5 | – | – |
| N#CCCNc1nccc(-c2c(-c3ccc(F)cc3)nc3occn23)n1 [XIX] | 100 | 1140 | – | – |
| CS(=O)(=O)N1CCC(Nc2nccc(-c3c(-c4cccc(C(F)(F)F)c4)nc4occn34)n2)CC1 [CCCXVI] | 0.9 | 33.7 | – | – |
| Cc1ccccc1-c1nc2occn2c1-c1ccnc(N[C@@H]2CN3CCC2CC3)n1 [CCXCII] | 16.3 | – | 47.8 | – |
| CCCC(CO)Nc1nccc(-c2c(-c3ccc(F)cc3)nc3occn23)n1 (stereo not shown) [XXXIV] | 2.19 | 19.7 | – | – |
| COc1cccc(CNc2nccc(-c3c(-c4ccc(F)cc4)nc4occn34)n2)c1OC [LXXIX] | 342 | 58.4 | – | – |
| CN1[C@@H]2CC[C@H]1C[C@@H](Nc1nccc(-c3c(-c4cccc(C(F)(F)F)c4)nc4occn34)n1)C2 [CCCX] | 9.3 | 47.9 | – | – |
| FC(F)(F)c1cccc(-c2nc3occn3c2-c2ccnc(N[C@@H]3CN4CCC3CC4)n2)c1 [CCXCIII] | 4.9 | 172 | – | – |
| OC(CNc1nccc(-c2c(-c3ccc(F)cc3)nc3occn23)n1)c1ccccc1 (stereo not shown) [LII] | 54.5 | – | – | 60.9 |
| CCOC(=O)N1CCC(Nc2nccc(-c3c(-c4ccc(F)cc4)nc4occn34)n2)CC1 [LXX] | 3.33 | 12.2 | – | – |
| CN(C)CC(C)(C)CNc1nccc(-c2c(-c3cccc(C(F)(F)F)c3)nc3occn23)n1 [CCCVII] | 43.3 | 136 | – | – |
| Fc1ccc(-c2nc3sccn3c2-c2ccnc(NCCc3ccncc3)n2)cc1 [CCXVIII] | 5.87 | 4.46 | – | – |
| Clc1ccccc1-c1nc2occn2c1-c1ccnc(NC2CCNCC2)n1 [CCCXIV] | 14.5 | 24.6 | – | – |
| OC1(CNc2nccc(-c3c(-c4ccc(F)cc4)nc4occn34)n2)CCCCC1 [CXVII] | 20.6 | 47 | – | – |

| SMILES | IC50 [1] [nM] | IC50 [2, 3] [nM] | IC50 ([2]; Homo sapiens, THP-1, 18 h, read-out: TNFα (THP-1) IC50 (nM)) [nM] | IC50 [2, 4] [nM] |
| --- | --- | --- | --- | --- |
| CC(CO)Nc1nccc(-c2c(-c3ccc(F)cc3)nc3sccn23)n1 (stereo not shown) [CXCIII] | 6.19 | 8.38 | – | – |
| CS(=O)(=O)N1CCC(Nc2nccc(-c3c(-c4ccc(F)cc4Cl)nc4occn34)n2)CC1 [CCCXIX] | 0.3 | 17.7 | – | – |
| Fc1ccc(CN2CCC(Nc3nccc(-c4c(-c5ccc(F)cc5)nc5sccn45)n3)CC2)cc1 [CCLIV] | 30.2 | 345 | – | – |
| Fc1ccc(-c2nc3occn3c2-c2ccnc(NC[C@@H]3CCCO3)n2)cc1 [XLII] | 80.8 | 11.2 | – | – |
| CC(=O)N1CCC(Nc2nccc(-c3c(-c4cccc(C(F)(F)F)c4)nc4occn34)n2)CC1 [CCCVI] | 4.9 | 82.6 | – | – |
| C[C@H](Nc1nccc(-c2c(-c3ccc(F)cc3)nc3occn23)n1)[C@H](O)c1ccccc1 [LXIII] | 38.5 | 87.4 | – | – |
| Fc1ccc(-c2nc3occn3c2-c2ccnc(NC3CCNCC3)n2)c(Cl)c1 [CCLXXXVI] | 7 | 67.3 | – | – |
| O[C@H]1CCCC[C@@H]1Nc1nccc(-c2c(-c3ccc(F)cc3)nc3occn23)n1 [LXIX] | 83.3 | 11.4 | – | – |
| CC(C)(C)OC(=O)N1CCC(CNc2nccc(-c3c(-c4ccc(F)cc4)nc4sccn34)n2)CC1 [CCXXXVIII] | 87.6 | 162 | – | – |
| Oc1cccc(C(O)CNc2nccc(-c3c(-c4ccc(F)cc4)nc4sccn34)n2)c1 (stereo not shown) [CCXLVI] | 3.06 | 23.9 | – | – |
| OC[C@@H](Nc1nccc(-c2c(-c3ccc(F)cc3)nc3occn23)n1)[C@H](O)c1ccccc1 [LXXXIII] | 185 | 346 | – | – |
| CC(CO)Nc1nccc(-c2c(-c3ccc(F)cc3)nc3occn23)n1 (stereo not shown) [XLI] | 1.75 | – | – | 49.2 |
| CCCCC(CO)Nc1nccc(-c2c(-c3ccc(F)cc3)nc3occn23)n1 (stereo not shown) [LX] | 20.5 | 69.7 | – | – |
| CC(C)(Nc1nccc(-c2c(-c3ccc(F)cc3)nc3sccn23)n1)C(O)c1ccccc1 (stereo not shown) [CCLX] | 30 | 213 | – | – |
| CC(C)(C)OC(=O)N1CCC(Nc2nccc(-c3c(-c4ccccc4Cl)nc4occn34)n2)CC1 [CCLXXXVII] | 8.2 | 170 | – | – |
| CC(C)C(CO)Nc1nccc(-c2c(-c3ccc(F)cc3)nc3sccn23)n1 (stereo not shown) [CLXXII] | 4.67 | 48.1 | – | – |
| O[C@H]1CC[C@H](Nc2nccc(-c3c(-c4ccc(F)cc4)nc4sccn34)n2)CC1 [CCXXI] | 1.57 | 5.56 | – | – |
| CCOC(=O)N1CCC(Nc2nccc(-c3c(-c4ccc(F)cc4)nc4sccn34)n2)CC1 [CCXVII] | 1.19 | 7.84 | – | – |
| CC(C)C[C@H](CO)Nc1nccc(-c2c(-c3ccc(F)cc3)nc3occn23)n1 [L] | 86.6 | 125 | – | – |
